# Measured values taken from patent US20240181087A1, “COMPOSITION FOR CONTRAST IMAGING OF CANCER” (ASTELLAS PHARMA INC., priority 2021, published 2024).
# Columns and labels:
# [1] = system: mouse bladder cancer cell MB49; assay: near-infrared fluorescence observation of bladder after tail vein administration, MB49 bladder cancer mouse model; type: in vivo
# Method: Two bladder cancer mouse models (weight: about 20 g), having mouse bladder cancer cell MB49 transplanted in the bladder mucosa, and then grown for 3 weeks or 4 weeks, were used. To the tail vein of each of the mice, 0.2 mL of a saline containing the compound III (concentration of the compound III: 0.075 mg/mL) was administered, and after 1 day, the mouse was subjected to laparotomy under anesthesia by subcutaneous administration of ketamine (75 mg/kg) and medetomidine (1 mg/kg), and near-infrared fluorescence observation was performed with a near-infrared fluorescence imaging device (pde-neo, manufactured by Hamamatsu Photonics K.K., excitation wavelength: 760 nm, detection wavelength: fluorescence of 800 nm or more, the same applies hereinafter) (FIG. 1, right: near-infrared fluorescence image).
# As a comparative example, a saline containing the compound III was administered to the tail vein of a normal mouse (weight: about 20 g), and after 1 day, the mouse was subjected to laparotomy under anesthesia by subcutaneous administration of ketamine (75 mg/kg) and medetomidine (1 mg/kg), and near-infrared fluorescence observation was performed with a near-infrared fluorescence imaging device (pde-neo, manufactured by Hamamatsu Photonics K.K.) (FIG. 2).
# Two bladder cancer model mice (weight: about 20 g), having mouse bladder cancer cell MB49 transplanted in the bladder mucosa, and then grown for 3 weeks or 4 weeks, were used. To the tail vein of each of the mice, 0.2 mL of a saline containing the compound III (concentration of the compound III: 0.075 mg/mL) was administered. One day after the administration, the mouse was subjected to laparotomy under anesthesia by subcutaneous administration of ketamine (75 mg/kg) and medetomidine (1 mg/kg), and under observation of near-infrared fluorescence with a near-infrared fluorescence imaging device (pde-neo, manufactured by Hamamatsu Photonics K.K.), a cancer tissue site emitting near-infrared fluorescence was taken out for near-infrared fluorescence observation (FIG. 5, right: near-infrared fluorescence image). […]
# [2] = system: renal epithelial cell carcinoma; assay: near-infrared fluorescence imaging of kidney with tumor/pretumor induced with ferric nitrilotriacetate; type: in vivo, rat
# Method: A kidney cancer […] model was created based on a method reported by Okada et al., (Okada et al., Jpn. Arch. Int. Med., 1982, 29, 485). Specifically, rats (280 g to 320 g) were bred after continuously intraperitoneally administering ferric nitrilotriacetate to the rats for 6 months, and thus, renal epithelial cell carcinoma was induced therein.
# Each of the rats was anesthetized by intraperitoneally administering pentobarbital sodium salt, a saline containing the compound III was administered to the tail vein (dose of the compound: 0.75 mg/kg of the rat), and 30 minutes, 3 hours, or 24 hours after the administration, the rat was subjected to laparotomy to perform near-infrared fluorescence imaging of the kidney with a near-infrared fluorescence imaging device (PDE, manufactured by Hamamatsu Photonics K.K.) (FIG. 11). Besides, the kidney having been subjected to the near-infrared fluorescence imaging was excised from the body, and the cross section was subjected to near-infrared fluorescence imaging (FIG. 12). Three rats each were used at each of the above-described timings after the administration, and nine rats were used in total.
# Besides, a specimen for microscopic observation was created through ethanol immobilization, section creation, hematoxylin/eosin staining for performing observation in bright field and near-infrared fluorescence (FIG. 13). […] Thus, tumor embedded in surrounding tissues could be detected.
# [3] = system: B16F1 (skin cancer cell); assay: near-infrared fluorescence imaging after administration into tumor, B16F1 skin cancer model; type: in vivo, mouse; conditions: 0.02 to 0.05 mL of 1 mg/mL saline, transdermal imaging
# Text: A syngeneic tumor transplanted mouse model was created as follows referring to “Gan-Shikkan Model no Sakusei to Riyo (Cancer-Creation and Use of Disease Model)” (Takuro Nakamura, LIC, 2012). • (Breast Cancer) A tumor model was created by breeding a normal Balb/c mouse (weight: about 20 g to 30 g) for 14 days with mouse tumor cell 4T1 subcutaneously administered thereto. • (Colorectal Cancer) A tumor model was created by breeding a normal Balb/c mouse (weight: about 20 g to 30 g) for 14 days with CT26 (colorectal cancer cell) subcutaneously administered thereto. • (Skin Cancer) A tumor model was created by breeding a C57BL/6 mouse (weight: about 15 g to 20 g) for 14 days with B16F1 (skin cancer cell) subcutaneously administered thereto.
# Subsequently, to the tumor of each of the model mice, 0.02 to 0.05 mL of a saline containing the compound III or ICG (concentration of the compound III or ICG: 1 mg/mL) was administered, and fluorescence imaging was performed transdermally with a near-infrared fluorescence camera (Fluobeam, manufactured by Fluoptics, http://www.solve-net.com/info/wp-content/uploads/downloads/2013/12/Fluobeam.pdf) (excitation wavelength: 780 nm, detection wavelength: 800 nm or more).
# [4] = system: RenCa cell; assay: near-infrared fluorescence imaging of lung, lung cancer-bearing mouse (RenCa, tail vein inoculation); type: in vivo; conditions: tail vein 120 nmol/kg; after 10 minutes; excised lung
# Method: Metastatic spontaneous renal cell carcinoma line from BALB/c mouse, RenCa cell (1×10^6 cells, purchased from CLS Cell Lines Service GmbH, Eppelheim, Germany) was prepared in RPMI-1640 medium (fetal bovine serum free, FUJIFILM Wako Pure Chemical Corporation), the resultant was inoculated in a mouse (BALB/cCrSlc, SPF, female, 7 weeks old) by tail vein administration under anesthesia by subcutaneous administration of ketamine (75 mg/kg) and medetomidine (1 mg/kg), and the resultant mouse was bred for 18 days to cause lung cancer therein. The mouse was anesthetized by subcutaneous administration of ketamine (75 mg/kg) and medetomidine (1 mg/kg), and the compound III (120 nmol/kg weight) was administered through the tail vein. After 10 minutes, the lung was excised to perform near-infrared fluorescence imaging with a near-infrared fluorescence imaging device (pde-neo, manufactured by Hamamatsu Photonics K.K.).
# [5] = ferric nitrilotriacetate rat, tail vein 0.75 mg/kg, excised kidney
smiles,measurement,setting,value
"COC1=C(/C=C/C2=[N+](CCC(=O)NCCCO[C@H]3[C@H]4O[C@H]5[C@H](O)[C@@H](O)[C@@H](O[C@H]6[C@H](O)[C@@H](O)[C@@H](O[C@H]7[C@H](O)[C@@H](O)[C@@H](O[C@H]8[C@H](O)[C@@H](O)[C@@H](O[C@H]9[C@H](O)[C@@H](O)[C@@H](O[C@H]%10[C@H](O)[C@@H](O)[C@@H](O[C@@H]([C@@H]3O)[C@@H](CO)O4)O[C@@H]%10CO)O[C@@H]9CO)O[C@@H]8CO)O[C@@H]7CO)O[C@@H]6CO)O[C@@H]5CO)c3ccc4ccccc4c3C2(C)C)CCC/C1=C\C=C1\N(CCC(=O)NCCCO[C@H]2[C@H]3O[C@H]4[C@H](O)[C@@H](O)[C@@H](O[C@H]5[C@H](O)[C@@H](O)[C@@H](O[C@H]6[C@H](O)[C@@H](O)[C@@H](O[C@H]7[C@H](O)[C@@H](O)[C@@H](O[C@H]8[C@H](O)[C@@H](O)[C@@H](O[C@H]9[C@H](O)[C@@H](O)[C@@H](O[C@@H]([C@@H]2O)[C@@H](CO)O3)O[C@@H]9CO)O[C@@H]8CO)O[C@@H]7CO)O[C@@H]6CO)O[C@@H]5CO)O[C@@H]4CO)c2ccc3ccccc3c2C1(C)C.[Cl-] [compound III, 3-(3-{[3-(cyclomaltoheptaose-21-O-yl)propyl]amino}-3-oxopropyl)-2-{(1E)-2-[(3E)-3-{(2E)-2-[3-(3-{[3-(cyclomaltoheptaose-21-O-yl)propyl]amino}-3-oxopropyl)-1,1-dimethyl-1,3-dihydro-2H-benzo[e]indol-2-ylidene]ethylidene}-2-methoxycyclohexa-1-en-1-yl]ethene-1-yl}-1,1-dimethyl-1H-benzo[e]indol-3-ium chloride]",excision of tumor tissue with fluorescence emitted from the cancer tissue used as a guide,"[1]; MB49 bladder cancer mouse model, 0.2 mL saline 0.075 mg/mL, 1 day after administration",could be appropriately excised
same,near-infrared fluorescence in cancer tissue of the bladder,"[1]; MB49 bladder cancer mouse model, 0.2 mL saline 0.075 mg/mL, after 1 day, laparotomy",specifically observed
same,near-infrared fluorescence of normal tissue (bladder),"[1]; normal mouse, after 1 day, laparotomy",did not emit near-infrared fluorescence
same,near-infrared fluorescence micro image of kidney tissue section,"[2]; ferric nitrilotriacetate rat, near-infrared fluorescence microscope, section 3 hours after administration","strong near-infrared fluorescence was found locally in a non-neoplastic degeneration site, a pre-neoplastic degeneration site, and a neoplastic degeneration site"
same,near-infrared fluorescence macro image of the surface of the kidney having tumor and pretumor,"[2]; ferric nitrilotriacetate rat, tail vein 0.75 mg/kg, 30 minutes, 3 hours or 24 hours after administration",strong fluorescence was locally found in a dotted manner
same,near-infrared fluorescence image of kidney cross section: dotted fluorescence in renal medulla,[2]; [5],not observed
same,near-infrared fluorescence image of kidney cross section: renal cortex,[2]; [5],a site exhibiting strong fluorescence in a dotted manner was observed
same,aspect of dotted strong fluorescence in normal kidney,"[2]; normal rat, tail vein 0.75 mg/kg",not observed
same,retention in tumor (fluorescence imaging),[3],retained in the tumor
same,intensity of near-infrared fluorescence in lung cancer site,[4],low
